Results taken from patent publication US8153601B2, “Azithromycin-containing aqueous pharmaceutical composition and a method for the preparation of the same” (Wakamoto Pharmaceutical Co., Ltd., priority 2004, dated 2012).

Assay: Stability of azithromycin during the preparation steps (survival rate of AZT after preparation, HPLC)
Assay type: physicochemical
Conditions: pH of the azithromycin-containing aqueous solution less than 4.0
Protocol: Stability of the azithromycin-containing aqueous pharmaceutical compositions prepared in the above Examples and Comparative Examples were evaluated in terms of azithromycin concentration in the composition.
The compositions (Examples 1 to 8 and Comparative Examples 1 and 2) were packed in glass vial, sealed with a lid, and stored at 60° C. for one and two weeks. Then, azithromycin concentration in the composition just after packed in the glass vial and after the storage at 60° C. was determined by HPLC. Stability was evaluated as follows.
First, the azithromycin content added was compared with the azithromycin content in the composition just after packed in the glass vial to evaluate stability of azithromycin during the preparation steps. This is expressed by a survival rate of AZT after preparation wherein AZT means azithromycin.
The same procedures in Test Example 1 were repeated to evaluate stability of the compositions of Examples 9 to 12 and Comparative Example 3.
The similar procedures to Test Example 1 were repeated to evaluate stability of the compositions of Examples 18 to 20.

Structure (SMILES): CC[C@H]1OC(=O)[C@H](C)[C@@H](O[C@H]2C[C@@](C)(OC)[C@@H](O)[C@H](C)O2)[C@H](C)[C@@H](O[C@@H]2O[C@H](C)C[C@H](N(C)C)[C@H]2O)[C@](C)(O)C[C@@H](C)CN(C)[C@H](C)[C@@H](O)[C@]1(C)O [azithromycin]
- decomposition of azithromycin in aqueous solution: decomposed
